Reference: patent publication US20260061042A1, “POLYNUCLEOTIDE COMPOSITIONS AND USES THEREOF” (Pfizer Inc., priority 2024, published 2026)
Changes are numbered by the printed parent chain. pKd: −log10 of the molar value. Where two headings read alike, the source gives them in different places.

Assays:
Assay in all cases: PapG Luminex ligand binding at equilibrium
[1] = biological target: T1, E. coli CFT073 PapG-II lectin domain PapGLD variant N96S S89T, SEQ ID NO: 15 (Escherichia coli, UniProt A0A0H2VAQ6, N116S/S109T); details: HEPES pH 7.4, 4° C. overnight
T1 sequence (A0A0H2VAQ6 with tags, fused parts or gaps S109T/N116S): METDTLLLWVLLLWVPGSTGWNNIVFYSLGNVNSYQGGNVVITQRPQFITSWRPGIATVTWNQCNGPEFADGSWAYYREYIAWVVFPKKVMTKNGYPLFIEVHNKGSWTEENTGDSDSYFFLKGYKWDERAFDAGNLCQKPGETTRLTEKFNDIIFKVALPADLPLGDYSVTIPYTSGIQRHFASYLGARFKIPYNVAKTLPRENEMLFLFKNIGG
Description: (§1) To determine the ability of PapGLD mutants to bind the porcine derived globotetraosyl ceramide ligand GalNAc-Gal-Gal-Glc-ceramide (GbO4), a Luminex ligand binding assay was developed. Surfactant Protein-A (SP-A) was coupled to the surface of MagPlex beads by EDC/NHS, to capture the lipid tail of the globotetraosyl ceramide. The Globotetraosyl ceramide/SP-A beads were incubated with an eight-point threefold titration of PapG in a 96 well flat bottom white plate with final volume of 100 microliters of 50 mM HEPES PH 7.4, 10 mM NaCl, 0.0005% Tween 20 shaking at 300 rpm, 4° C. overnight. After 20-24 hours the ligand binding plates were read on a FlexMap 3D plate reader for measurement of well-bead region specific MFI. Ligand binding equilibrium dissociation constants (Kd) were calculated assuming one site specific binding and interpolated using non-linear curve fitting (GraphPad Prism) as the ligand concentration needed to achieve half-maximal binding. The Luminex derived apparent Kd values are based on approximately fifty bead counts per assay sample.
(§2) To determine Luminex ligand binding affinities of PapG mutants for the synthetic globoside ligand Gal-Glc-phenoxy-octyl-amine (GbO2Mpo), a Luminex ligand binding assay was developed based on the direct coupling of the amine reactive globoside ligand to the EDC/NHS activated carboxylic surface of MagPlex beads. Synthesis of GbO2Mpo ligand with an octyl amine linker (for coupling to beads) was performed via methods described previously. The GbO2Mpo beads were incubated with an 8-point, threefold titration of PapG in a 96-well flat bottom white plate with final volume of 100 μl of 50 mM HEPES pH 7.4, 10 mM NaCl, 0.0005% Tween 20 shaking at 300 rpm, 4° C. overnight. After 20-24 hours the ligand binding plates were read on a FlexMap 3D plate reader for measurement of well-bead region specific MFI.
(§3) Binding of PapG proteins to GbO2 or GbO4 ligands was evaluated using a Luminex platform wherein ligands were coupled to MagPlex beads via surfactant protein A (for […]) or directly using […] conjugation (for […]). This assay was used to rank order binding affinities of the mutants, reported as Kd values interpolated from protein antigen titration curves (Table 7).

[2] = biological target: T2, E. coli CFT073 PapG-II lectin domain PapGLD variant N96S G18A, SEQ ID NO: 18 (Escherichia coli, UniProt A0A0H2VAQ6, G38A/N116S); details: HEPES pH 7.4, 4° C. overnight
T2 sequence (A0A0H2VAQ6 with tags, fused parts or gaps G38A/N116S): T1 sequence (A0A0H2VAQ6 with tags, fused parts or gaps S109T/N116S) with G38A, T109S
Description: as §1, §2, §3

[3] = biological target: T3, E. coli CFT073 PapG-II lectin domain PapGLD variant N96S G122A, SEQ ID NO: 20 (Escherichia coli, UniProt A0A0H2VAQ6, G142A/N116S); details: for pKd: HEPES pH 7.4, 4° C. overnight
T3 sequence (A0A0H2VAQ6 with tags, fused parts or gaps N116S/G142A): T1 sequence (A0A0H2VAQ6 with tags, fused parts or gaps S109T/N116S) with T109S, G142A
Description: as §1, §2, §3

[4] = biological target: T4, E. coli CFT073 PapG-II lectin domain PapGLD variant N96S G86A, SEQ ID NO: 14 (Escherichia coli, UniProt A0A0H2VAQ6, G106A/N116S); details: HEPES pH 7.4, 4° C. overnight
T4 sequence (A0A0H2VAQ6 with tags, fused parts or gaps G106A/N116S): T1 sequence (A0A0H2VAQ6 with tags, fused parts or gaps S109T/N116S) with G106A, T109S
Description: as §1, §2, §3

[5] = biological target: T5, E. coli CFT073 full-length donor strand complemented PapG-II, PapGDSF variant N96S N242S N286S K172A, SEQ ID NO: 26 (Escherichia coli, UniProt A0A0H2VAQ6, K192A/N116S/N262S/N306S); details: for pKd: HEPES pH 7.4, 4° C. overnight
T5 construct: mouse IgGK signal peptide, C-terminal 8xHis, ExpiCHO, purified
T5 sequence (A0A0H2VAQ6 with tags, fused parts or gaps N116S/K192A/N262S/N306S): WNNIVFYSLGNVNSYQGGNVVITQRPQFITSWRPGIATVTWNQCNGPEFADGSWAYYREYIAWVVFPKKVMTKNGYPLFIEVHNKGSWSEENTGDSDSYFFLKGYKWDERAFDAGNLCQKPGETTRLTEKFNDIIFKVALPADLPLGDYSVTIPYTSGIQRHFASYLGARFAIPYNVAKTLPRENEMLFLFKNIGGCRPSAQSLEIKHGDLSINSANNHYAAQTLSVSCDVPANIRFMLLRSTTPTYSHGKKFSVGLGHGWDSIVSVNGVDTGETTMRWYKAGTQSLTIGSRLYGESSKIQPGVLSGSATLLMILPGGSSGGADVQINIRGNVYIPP
Description: as §1, §2, §3

[6] = GbO2Mpo beads, read-out: Kd (GbO2)
[7] = GbO4 beads, read-out: Kd (GbO4)

Substance	pKd [1, 6]	pKd [2, 6]	pKd [3, 6]	pKd [4, 6]	binding to GbO2 (in words) [5]	pKd [5, 6]	pKd [1, 7]	pKd [2, 7]	binding to GbO4 (in words) [3]	pKd [3, 7]	pKd [4, 7]	binding to GbO4 (in words) [5]	pKd [5, 7]
Gal-Glc-phenoxy-octyl-amine [GbO2]	9.00	8.74	8.85	8.89	no binding was detected	< 6.52	–	–	–	–	–	–	–
GalNAc-Gal-Gal-Glc-ceramide [GbO4]	–	–	–	–	–	–	> 7.30	< 8.00	reduced binding	< 6.52	7.82	no binding was detected	< 6.52
